Source: patent publication US20260131007A1, “Mannose 6-Phosphate Receptor Binding Compounds for the Degradation of Extracellular Proteins” (Avilar Therapeutics, Inc., priority 2023, published 2026)
Several values for one entry are separate records, joined by “and”; a condition that tells them apart may be missing. Equal values may be shown once. Read-outs that look alike come from different tables or passages of the source. Bridge positions count the residues as written; N and C are the ends. Square brackets hold non-standard residues; d marks the D form.

Assays:
IgG = assay: Uptake and degradation in K562 cells (Western blot); assay type: cell-based, human; conditions: K562 cells treated with compound and IgG; FIG. 14-17
Experimental: On day one, cells were harvested, counted, and seeded 1 million/well in 6 well plates for each cell line. On day two, cells were treated with compounds and IgG (Sigma, Cat #14506 dissolved in medium). Treated cells were washed three times with PBS, followed by addition of 200 μL of RIPA buffer (+HALT protease and phosphatase inhibitors) per well. Lysates were left on ice for 5 minutes then were collected into microcentrifuge tubes using a cell scraper. Lysates were then kept on a shaker for 30-60 minutes at 4° C. followed by centrifugation at 14,000 rpm at 4° C. for 15 minutes. Then, supernatants were transferred to fresh tubes and total protein concentration of each sample was determined using Pierce BCA kit. Next, 25 ug total protein of each sample was resolved on a 4-20% gels and transferred to PVDF membranes. Membranes were blocked in TBST+5% milk (made fresh) for one hour while shaking at room temperature. Then, the first antibody was added in TBST+5% milk at 4° C. overnight: a) Rabbit anti-human IgG, Abcam; Cat #ab181236-1:1000, b) anti-β-actin, Cell signaling Tech, Cat #3700S)-1:3000. On the next day, membranes were washed with TBST 10 minutes each for three times. Later, the second antibody was added in TBST+5% milk at room temperature over one hour: a) IRDye 800CW Goat anti Rabbit IgG, Licor, Cat #926-32211)-1:10,000; b) IRDye 680RD Goat anti Mouse IgG (Licor Cat #926-68078)-1:10,000. Then, membranes were washed with TBST 10 minutes each for three times. The results were detected by Licor. Data from the uptake and degradation assay is shown in FIG. 14, FIG. 15, FIG. 16, and FIG. 17.

K562 cells = assay: Ternary complex formation (TCF) in K562 cells, flow cytometry with AF488-labeled human IgG; assay type: cell-based; conditions: AF488-labeled human IgG 300 nM, 4° C., 1 hour
Experimental: K562 cells were seeded in 96-well assay plate using K562 cell medium, then compounds and AF488-labeled human IgG (final concentration of 300 nM) were added at 4° C. and incubated for 1 hour. Afterwards, the cells were washed once with 1×PBS+0.1% BSA (Cold) and centrifuged at 1000 rpm for 5 minutes. Next, cells were re-suspended in 150 μL 1×PBS+0.1% BSA and ran flow cytometry on iQue® Screener PLUS.

[1] = biological target: T1, hIGF-IIR and IgG1 (ternary complex) (Homo sapiens, UniProt P01857+P11717); assay: HTRF-based ternary complex formation assay for hIGF-IIR targeting Extracellular Protein Degraders; assay type: binding
T1 construct: purchased R&D Systems 6418-GR
From the text: The ternary complex formation assay is designed to identify and determine the potency of Extracellular Protein Degrader molecules which can induce the formation of ternary complex between the Extracellular Protein Degrader hIGF-IIR. Titrating Extracellular Protein Degrader to fixed amount of hIGF-IIR results in a bell-shaped curve (except molecules whose binary complex affinity between Extracellular Protein Degrader and hIGF-IIR). The peak mean represents Extracellular Protein Degrader concentration at which maximum ternary complex is formed. Too much or too little Extracellular Protein Degrader leads to decreased ternary complex formation due to formation of binary complex (Hook effect). Dose response of Extracellular Protein Degrader compounds (16-point 3-fold dilution series, 100X) were prepared by Echo Acoustic Liquid Handler (Beckman Coulter Life Sciences) using 384-well LDV microplate. Then 200 nL of the solutions were transferred to an OptiPlate 384-well microplate (PerkinElmer, 6007290). To the assay plate, 10 μL working solution containing 60 nM of Biotinylated-IgG1 (Viva 20211108) and 60 nM of His-tagged hIGF-IIR (R&D Systems, 6418-GR) in assay buffer 50 mM Tris, pH 7.5, 150 mM NaCl, 50 mM CaCl2, 0.01% Tween-20 were added. The plate was incubated for 60 min at room temperature with gentle shaking to allow molecular interaction to reach equilibration. Following this, 10 μL of HTRF detection solution containing 15 nM Streptavidin-d2 (PerkinElmer, 610SADLA) and 0.7 nM MAb Anti 6HIS—Tb cryptate (PerkinElmer, 61HISTLA) in PPI Terbium detection buffer (PerkinElmer, 61DB10RDF) were added. The assay plate was incubated at room temperature with gentle shaking for 60 min to allow HTRF signal to develop. The plate was gently spun on a centrifuge then placed on an EnVision plate reader (Perkin Elmer, EnVision 2104) to read fluorescence ratio of 665 nm/615 nm. Data were analyzed by fitting with Bell-shaped non-linear regression model using GraphPad Prism (GraphPad Software, LLC; version 9.4.1). Mean fluorescence intensity is graphed versus compound concentration and the EC50 for TCF is calculated from the inflection point of the curve (GraphPad).

[2] = biological target: AF488-labeled human IgG (human); assay: flow cytometry, ternary complex formation on K562 cells at 4 C, compound + 300 nM AF488-labelled human IgG; grade read by the legend '50 nM < IC50 < 250 nM = **'
[3] = biological target: Biotinylated-IgG1 (Viva 20211108); assay: HTRF ternary complex formation: compound titrated into 60 nM biotinylated IgG1 + 60 nM His-tagged hIGF-IIR (R&D 6418-GR); grade read by the legend '<50 nM = ***'
[4] = biological target: AF488-labeled human IgG (human); assay: flow cytometry, ternary complex formation on K562 cells at 4 C, compound + 300 nM AF488-labelled human IgG; grade read by the legend '<50 nM = ***'

Molecule	degradation of IgG (gel electrophoresis image) (IgG)	EC50 (K562 cells) [nM]	EC50 [3] [nM]	EC50 [4] [nM]	also measured
CC(C)C[C@@H]1NC(=O)[C@H](Cc2c[nH]cn2)NC(=O)[C@H](Cc2c[nH]c3ccccc23)NC(=O)[C@H](C)NC(=O)[C@@H]2CSSC[C@H](NC(=O)[C@H](Cc3c[nH]c4ccccc34)NC(=O)[C@H](C(C)C)NC(=O)[C@H](CC(C)C)NC(=O)[C@H](CCC(=O)O)NC(=O)CNC1=O)C(=O)N[C@@H]([C@@H](C)O)C(=O)N1CCC[C@@H]1C(=O)N1C[C@@H](NC(=O)COCCOCCOCC(=O)NC(COCCC(=O)NCCOCCn3cc([C@H]4O[C@H](CCP(=O)(O)O)[C@@H](O)[C@H](O)[C@@H]4O)nn3)(COCCC(=O)NCCOCCn3cc([C@H]4O[C@H](CCP(=O)(O)O)[C@@H](O)[C@H](O)[C@@H]4O)nn3)COCCC(=O)NCCOCCn3cc([C@H]4O[C@H](CCP(=O)(O)O)[C@@H](O)[C@H](O)[C@@H]4O)nn3)C[C@H]1C(=O)N[C@@H](CC(=O)O)C(=O)N2 [Compound 2]	degradation of IgG	< 50	–	–	EC50 [1]: < 50 nM
CC(C)C[C@H]1NC(=O)[C@H](Cc2c[nH]cn2)NC(=O)[C@H](Cc2c[nH]c3ccccc23)NC(=O)[C@H](C)NC(=O)[C@@H]2CSSC[C@H](NC(=O)[C@H](Cc3c[nH]c4ccccc34)NC(=O)[C@@H](C(C)C)NC(=O)[C@@H](CC(C)C)NC(=O)[C@H](CCC(=O)O)NC(=O)CNC1=O)C(=O)N[C@H]([C@@H](C)O)C(=O)N1CCC[C@@H]1C(=O)N1C[C@@H](NC(=O)CCOCCOCCOCCOCCOCCOCCOCCOCCn3cc(CCCCNC(=O)Nc4ccc5c(c4)Cc4cc(O[C@H]6O[C@H](CCP(=O)(O)O)[C@@H](O)[C@H](O)[C@@H]6O)ccc4-5)nn3)C[C@H]1C(=O)N[C@@H](CC(=O)O)C(=O)N2 [Compound 12]	degradation of IgG	< 50	–	–	–
CC(C)C[C@@H]1NC(=O)[C@H](Cc2c[nH]cn2)NC(=O)[C@H](Cc2c[nH]c3ccccc23)NC(=O)[C@H](C)NC(=O)[C@@H]2CSSC[C@H](NC(=O)[C@H](Cc3c[nH]c4ccccc34)NC(=O)[C@H](C(C)C)NC(=O)[C@H](CC(C)C)NC(=O)[C@H](CCC(=O)O)NC(=O)CNC1=O)C(=O)N[C@@H]([C@@H](C)O)C(=O)N1CCC[C@@H]1C(=O)N1C[C@@H](NC(=O)CCOCCOCCOCCOCCOCCOCCOCCOCCn3cc([C@H]4O[C@H](CCP(=O)(O)O)[C@@H](O)[C@H](O)[C@@H]4O)nn3)C[C@H]1C(=O)N[C@@H](CC(=O)O)C(=O)N2 [Compound 8]	degradation of IgG	< 50	–	–	EC50 ([1]; biotinylated IgG1 and His-tagged hIGF-IIR, 60 nM each, read-out: TCF (HTRF) EC50): < 50 nM
COc1ccc(OC2O[C@H](CCP(=O)(O)Cc3cn(CCOCCNC(=O)CCOCC(COCCC(=O)NCCOCCn4cc(CP(=O)(O)CC[C@@H]5OC(Oc6ccc(OC)cc6)[C@H](O)[C@H](O)[C@H]5O)nn4)(COCCC(=O)NCCOCCn4cc(CP(=O)(O)CC[C@H]5OC(Oc6ccc(OC)cc6)[C@@H](O)[C@@H](O)[C@@H]5O)nn4)NC(=O)COCCOCCOCC(=O)N[C@H]4C[C@H]5C(=O)N[C@@H](CC(=O)O)C(=O)N[C@H]6CSSC[C@H](NC(=O)[C@H](Cc7c[nH]c8ccccc78)NC(=O)[C@H](C(C)C)NC(=O)[C@H](CC(C)C)NC(=O)[C@H](CCC(=O)O)NC(=O)CNC(=O)[C@H](CC(C)C)NC(=O)[C@H](Cc7c[nH]cn7)NC(=O)[C@H](Cc7c[nH]c8ccccc78)NC(=O)[C@H](C)NC6=O)C(=O)N[C@@H]([C@@H](C)O)C(=O)N6CCC[C@@H]6C(=O)N5C4)nn3)[C@@H](O)[C@H](O)[C@@H]2O)cc1 (some centres unmarked) [Compound 10]	–	–	–	–	EC50 [1]: < 50 nM
cyclo(ELVWCT[dP]PDCAWHLG) (disulfide 5-10; not fully specified (residue 8); also: trivalent linker structure not given here) [Compound 5]	–	–	< 50	–	EC50 [2]: > 50 nM and < 250 nM
cyclo(ELVWCT[dP]PDCAWHLG) (disulfide 5-10; not fully specified (residue 8); also: trivalent linker structure not given here) [Compound 2]	–	–	< 50	< 50	–
cyclo(ELVWCT[dP]PDCAWHLG) (disulfide 5-10; not fully specified (residue 8); also: one triazole-linked A20 group on the PEG8 linker) [Compound 8]	–	–	< 50	< 50	–
cyclo(ELVWCT[dP]PDCAWHLG) (disulfide 5-10; not fully specified (residue 8); also: one triazole-linked A83 group on the PEG8 linker) [Compound 12]	–	–	< 50	< 50	–
